This is an account of results in ChEMBL document CHEMBL3525954, “Evaluation of hepatic disposition of paroxetine using sandwich-cultured rat and human hepatocytes” (Drug Metab Dispos, 2013).

Data set [1] can be described thus: Drug metabolism in human hepatocytes assessed as parent compound level at 1 uM after 3 hrs by radio-chromatogram analysis. It counts as ADME, cell-based, Hepatocyte. The conditions noted are these: read-out: Drug metabolism.
Data set [2] can be described thus: Drug metabolism in 4 days of sandwich-cultured human hepatocytes assessed as parent compound level at 1 uM after 24 hrs by radio-chromatogram analysis. In kind it is ADME, cell-based, Hepatocyte. The conditions noted are these: read-out: Drug metabolism.
Data set [3] in a line: Drug metabolism in Sprague-Dawley rat hepatocytes assessed as parent compound level at 1 uM by radio-chromatogram analysis. It counts as ADME, cell-based, Hepatocyte. As to conditions: TDE = time-dependent effect; call rule not given here.
Data set [4] is described as follows: Drug metabolism in Sprague-Dawley rat hepatocytes assessed as (2S,3R,4S,5S,6R)-2-(4-(((4R)-4-(4-fluorophenyl)piperidin-3-yl)methoxy)-2-methoxyphenoxy)-6-(hydroxymethyl)tetrahydro-2H-pyran-3,4,5-triol level at 1 uM by radio-chromatogram analysis. In kind it is ADME, cell-based, Hepatocyte. As to conditions: TDE = time-dependent effect.
Data set [5] is described as follows: Drug metabolism in Sprague-Dawley rat hepatocytes assessed as 4-(((4R)-4-(4-fluorophenyl)piperidin-3-yl)methoxy)-2-methoxyphenyl hydrogen sulfate level at 1 uM by radio-chromatogram analysis. It counts as ADME, cell-based, Hepatocyte. The conditions noted are these: TDE = time-dependent effect.
The nature of data set [6]: Drug metabolism in 4 days of sandwich-cultured Sprague-Dawley rat hepatocytes assessed as parent compound level at 1 uM by radio-chromatogram analysis. In kind it is ADME, cell-based, Hepatocyte. The conditions noted are these: 96 h, TDE = time-dependent effect.
Data set [7] in a line: Drug metabolism in 4 days of sandwich-cultured Sprague-Dawley rat hepatocytes assessed as (2S,3R,4S,5S,6R)-2-(4-(((4R)-4-(4-fluorophenyl)piperidin-3-yl)methoxy)-2-methoxyphenoxy)-6-(hydroxymethyl)tetrahydro-2H-pyran-3,4,5-triol level at 1 uM by radio-chromatogram analysis. It counts as ADME, cell-based, Hepatocyte. The conditions noted are these: 96 h, TDE = time-dependent effect.

The nature of data set [8]: Drug metabolism in 4 days of sandwich-cultured Sprague-Dawley rat hepatocytes assessed as 4-(((4R)-4-(4-fluorophenyl)piperidin-3-yl)methoxy)-2-methoxyphenyl hydrogen sulfate level at 1 uM by radio-chromatogram analysis. In kind it is ADME, cell-based, Hepatocyte. As to conditions: 96 h, TDE = time-dependent effect.
Data set [9] is described as follows: Drug metabolism in Sprague-Dawley rat hepatocytes assessed as parent compound level at 1 uM after 3 hrs by radio-chromatogram analysis. It counts as ADME, cell-based, Hepatocyte. As to conditions: read-out: Drug metabolism.
Data set [10] in a line: Drug metabolism in 4 days of sandwich-cultured Sprague-Dawley rat hepatocytes assessed as parent compound level at 1 uM after 24 hrs by radio-chromatogram analysis. The conditions noted are these: read-out: Drug metabolism. It counts as ADME, cell-based, Hepatocyte.
The nature of data set [11]: Drug metabolism in human hepatocytes treated with at 1 uM of paroxetine after 3 hrs by radio-chromatogram analysis. It counts as ADME, cell-based, Hepatocyte.
Data set [12] can be described thus: Drug metabolism in 4 days of sandwich-cultured human hepatocytes treated with at 1 uM of paroxetine after 24 hrs by radio-chromatogram analysis. In kind it is ADME, cell-based, Hepatocyte. The conditions noted are these: 96 h.
Data set [13] is described as follows: Drug metabolism in 4 days of sandwich-cultured human hepatocytes assessed as biliary excretion index treated with at 1 uM of paroxetine after 0.025 to 24 hrs by radio-chromatogram analysis. It counts as ADME, tissue-based, Bile, Hepatocyte. The conditions noted are these: 96 h.
The nature of data set [14]: Drug metabolism in 4 days of sandwich-cultured Sprague-Dawley rat hepatocytes assessed as biliary excretion index treated with at 1 uM of paroxetine after 0.025 to 24 hrs by radio-chromatogram analysis. In kind it is ADME, tissue-based, Bile, Hepatocyte. The conditions noted are these: 96 h.
Data set [15] in a line: Drug uptake in rat liver […] assessed as BCRP-mediated drug transport at 0.5 uM up to 2 mins by liquid scintillation counting in presence of ATP. In kind it is ADME, subcellular.
Data set [16] is described as follows: Drug metabolism in Sprague-Dawley rat hepatocytes treated with at 1 uM of paroxetine by radio-chromatogram analysis. The conditions noted are these: TDE = time-dependent effect. It counts as ADME, cell-based, Hepatocyte.
The nature of data set [17]: Drug metabolism in 4 days of sandwich-cultured Sprague-Dawley rat hepatocytes treated with at 1 uM of paroxetine by radio-chromatogram analysis. It counts as ADME, cell-based, Hepatocyte. The conditions noted are these: 96 h, TDE = time-dependent effect.

Take `Fc1ccc([C@@H]2CCNC[C@H]2COc2ccc3c(c2)OCO3)cc1.O=C(O)/C=C\C(=O)O`: the remaining at 3 h, 1 µM in data set [1] is 71.4%; in data set [9] it was 29.7%. Also, the remaining at 96 h, 1 µM in data set [2] is 52.8%; in data set [10], 36.6%. Moreover, the Drug metabolism result in data set [3], in data set [4], in [5], in [6], in data set [7] and in [8] was “tde” each time.

Turning to `COc1cc(OC[C@@H]2CNCC[C@H]2c2ccc(F)cc2)ccc1O[C@@H]1O[C@H](C(=O)O)[C@@H](O)[C@H](O)[C@H]1O`, the Drug metabolism entry is “metabolite_detected” in data set [11]; “metabolite_detected” in data set [12]; “metabolite_detected” in data set [13]; “metabolite_detected” in data set [14]; “tde” in [16]; “tde” in data set [17]. Also, the Drug uptake result in data set [15] is “Active”.

In the case of `COc1cc(OC[C@@H]2CNCC[C@H]2c2ccc(F)cc2)ccc1OS(=O)(=O)O`, the Drug metabolism result in [11] is reported as “metabolite_detected”; in [12], “metabolite_detected”; in [13] it was “metabolite_detected”; in data set [14], “metabolite_detected”; in data set [16] it was “tde”; in data set [17] it was “tde”. Also, in data set [15], the Drug uptake result is “Not Active”.
